# Source: ChEMBL document CHEMBL3301361, “Experimental in vitro DMPK and physicochemical data on a set of publicly disclosed compounds”
# Where “and” joins values, the source holds several entries; their conditions need not be identical. Equal values may be shown once.
# Columns and labels:
# physchem [1] = assay: physchem
# physchem [2] = conditions: pH 7.4 buffer
# in vitro [3] = conditions: hepatocytes
# in vitro [4] = conditions: human, hepatocytes
# in vitro [5] = conditions: human
# [6] = buffer, pH 7.4
# physchem [7] = assay: physchem; remark: listed apart in the source
# in vitro [8] = conditions: human, plasma
# in vitro [9] = conditions: SD, HW or BN, rat, plasma
# in vitro [10] = conditions: Beagle, dog, plasma
# physchem [11] = assay: physchem; remark: listed apart in the source
# physchem [12] = conditions: octan-1-ol/water
# physchem [13] = assay: physchem; remark: listed apart in the source
# in vitro [14] = conditions: mouse, plasma
# in vitro [15] = conditions: Dunkin Hartley, guinea pig, plasma
compound,measurement,setting,value
CC/C(=C(/c1ccc(O)cc1)c1ccc(/C=C/C(=O)O)cc1)c1ccccc1,pKa,physchem [1],9.55
same,solubility thermodynamic,physchem [2],1 µM
same,hepatocyte CLint,in vitro [3],69.2 µL/min/1e6 cells
same,hepatocyte CLint,in vitro [4],55 µL/min/1e6 cells
same,microsomal CLint,in vitro [5]; liver microsomes,33.9 µL/min/mg
CCCc1c2nc(C(=O)O)cc(Cl)c2cc2c(=O)cc(C(=O)O)oc12,pKa,physchem [1],3.7
CCN(CC)c1ccc(-c2nn3c(-c4n[nH]c5c4CCC5)nnc3s2)cc1,LogD7.4,[6],3.37
O=C(O)c1cc(=O)c2ccc(O)cc2o1,pKa,physchem [1],7.3
same,pKa,physchem [7],< 2
CS(=O)(=O)c1ccc(-c2cc(C(F)(F)F)ccc2OCC(=O)O)cc1,LogD7.4,[6],-0.87
same,microsomal CLint,in vitro [5]; liver microsomes,< 3 µL/min/mg
CCS(=O)(=O)c1cccc(-c2cc(C(F)(F)F)ccc2OCC(=O)O)c1,LogD7.4,[6],-0.66
Cc1cc(N(C)S(C)(=O)=O)ccc1-c1cc(C(F)(F)F)ccc1OCC(=O)O,LogD7.4,[6],-0.59
same,microsomal CLint,in vitro [5]; liver microsomes,< 3 µL/min/mg
CN(c1ccc(-c2cc(F)ccc2OCC(=O)O)c(Cl)c1)S(C)(=O)=O,LogD7.4,[6],-1.17
CS(=O)(=O)c1ccc(-c2cc(C(F)(F)F)ccc2OCC(=O)O)c(Cl)c1,fraction unbound at 5 h,in vitro [8]; PPB,0.0418
same,LogD7.4,[6],-0.52
same,fraction unbound at 5 h,in vitro [9],0.0499
CCS(=O)(=O)c1ccc(-c2cc(Cl)ccc2OCC(=O)O)cc1,fraction unbound at 5 h,in vitro [8]; PPB,0.0274
same,LogD7.4,[6],-0.78
same,microsomal CLint,in vitro [5]; liver microsomes,< 3 µL/min/mg
CS(=O)(=O)c1ccc(-c2cc(Cl)ccc2OCC(=O)O)c(Cl)c1,fraction unbound at 5 h,in vitro [8]; PPB,0.0251
same,LogD7.4,[6],-0.75
same,fraction unbound at 5 h,in vitro [9],0.035
CCS(=O)(=O)c1ccc(-c2cc(Cl)ccc2OCC(=O)O)c(F)c1,fraction unbound at 5 h,in vitro [8]; PPB,0.0488
same,hepatocyte CLint,in vitro [3],4.24 µL/min/1e6 cells
same,pKa,physchem [7],3
same,fraction unbound at 5 h,in vitro [10],0.0084
same,LogD7.4,[6],-0.92
same,fraction unbound at 5 h,in vitro [9],0.0568
same,hepatocyte CLint,in vitro [4],< 3 µL/min/1e6 cells
same,microsomal CLint,in vitro [5]; microsomes,< 3 µL/min/mg
CCS(=O)(=O)c1ccc(-c2cc(Cl)ccc2OCC(=O)O)c(C)c1,LogD7.4,[6],-0.65
O=c1[nH]c2c(O)ccc([C@@H](O)CNCCc3cccc(CN4CCCC4)c3)c2s1,LogD7.4,[6],-0.28
O=C([C@H]1CCCCN1)N1CCN(c2nc(NCc3ccc(Cl)cc3Cl)c3cccnc3n2)CC1,pKa,physchem [11],9
same,logD,"physchem [12]; pH 7.4, LogD7.4",2.27
same,hepatocyte CLint,in vitro [3],9.88 µL/min/1e6 cells
same,pKa,physchem [13],5.7
same,microsomal CLint,in vitro [5]; liver microsomes,24 µL/min/mg
O=C(O)c1cc(O)cc(Cl)c1,pKa,physchem [1],8.57
same,pKa,physchem [7],3.81
N#Cc1ccc(C[C@@H](C(=O)O)N2CCC(CN3CCC(Oc4ccc(Cl)c(Cl)c4)CC3)CC2)cc1,pKa,physchem [11],8.9
same,fraction unbound at 5 h,in vitro [14],0.197
same,solubility thermodynamic,physchem [2],53.7 µM
same,fraction unbound at 5 h,in vitro [8]; PPB,0.0521
same,fraction unbound at 5 h,in vitro [10],0.166
same,fraction unbound at 5 h,in vitro [9],0.0968
same,pKa,physchem [13],7
O=C(O)C(c1ccccc1)N1CCC(CN2CCC(Oc3ccc(Cl)c(Cl)c3)CC2)CC1 (stereo not given),pKa,physchem [11],9.6
same,logD,"physchem [12]; pH 7.4, LogD7.4",2.17
same,pKa,physchem [7],3
same,pKa,physchem [13],7.7
same,microsomal CLint,in vitro [5]; microsomes,< 3 µL/min/mg
O=C(O)c1ccccc1N1CCC(CN2CCC(Oc3ccc(Cl)c(Cl)c3)CC2)CC1,pKa,physchem [11],8.9
same,pKa,physchem [7],3.2
same,pKa,physchem [13],7.7
same,microsomal CLint,in vitro [5]; liver microsomes,8 µL/min/mg
O=C(O)c1cccc(CN2CCC(CN3CCC(Oc4ccc(Cl)c(Cl)c4)CC3)CC2)c1,pKa,physchem [11],9.6
same,pKa,physchem [7],3.5
same,pKa,physchem [13],7.7
same,microsomal CLint,in vitro [5]; microsomes,< 3 µL/min/mg
O=C(O)[C@H](Cc1ccccc1)N1CCC(CN2CCC(Oc3ccc(Cl)c(Cl)c3)CC2)CC1,pKa,physchem [11],9.25
same,fraction unbound at 5 h,in vitro [15],0.58
same,fraction unbound at 5 h,in vitro [14],0.154
same,solubility thermodynamic,physchem [2],13.5 µM
same,pKa,physchem [7],3.1
same,fraction unbound at 5 h,in vitro [10],0.11
same,fraction unbound at 5 h,in vitro [9],0.183
same,pKa,physchem [13],7.75
same,microsomal CLint,in vitro [5]; liver microsomes,< 3 µL/min/mg
O=C(NCC12CC3CC(CC(C3)C1)C2)c1cc(CN2CC3CNCC(C2)O3)ccc1Cl,pKa,physchem [11],10
same,fraction unbound at 5 h,in vitro [8]; PPB,0.0467
same,logD,"physchem [12]; pH 7.4, LogD7.4",1.55
same,hepatocyte CLint,in vitro [3],9 µL/min/1e6 cells
same,pKa,physchem [13],9
same,microsomal CLint,in vitro [5]; microsomes,15 µL/min/mg
COc1ccnc(CSc2nc3ccccc3[nH]2)c1,pKa,physchem [11],5.3
same,logD,"physchem [12]; pH 7.4, LogD7.4",2.89
same,hepatocyte CLint,in vitro [3],> 150 µL/min/1e6 cells
same,pKa,physchem [13],3
same,microsomal CLint,in vitro [5]; liver microsomes,86 µL/min/mg
O=C1CC2(CCCC2)CC(=O)N1CCCCN1CCN(c2ncccn2)CC1 [BUSPIRONE],pKa,physchem [11],7.61
same,solubility thermodynamic,physchem [2],1450 µM
same,pKa,physchem [13],5.48
same,hepatocyte CLint,in vitro [4],38.9 µL/min/1e6 cells
same,microsomal CLint,in vitro [5]; liver microsomes,116 µL/min/mg
CN(C)CCn1nnnc1SCC1=C(C(=O)O)N2C(=O)[C@@H](NC(=O)Cc3csc(N)n3)[C@H]2SC1 [CEFOTIAM],pKa,physchem [11],8.18
same,pKa,physchem [7],2.41
same,pKa,physchem [13],4.61
COc1cc(N)c(Cl)cc1C(=O)NC1CCN(CCCOc2ccc(F)cc2)CC1OC (stereo not given) [CISAPRIDE],LogD7.4,[6],3.56
CN1CCC[C@@H]1CCO[C@](C)(c1ccccc1)c1ccc(Cl)cc1 [CLEMASTINE],logD,"physchem [12]; pH 7.4, LogD7.4",3.04
same,LogD7.4,[6],3.48
CC(C)/N=c1\cc2n(-c3ccc(Cl)cc3)c3ccccc3nc-2cc1Nc1ccc(Cl)cc1 [CLOFAZIMINE],pKa,physchem [11],8.8
same,solubility thermodynamic,physchem [2],0.7 µM
same,LogD7.4,[6],3.17
same,fraction unbound at 5 h,in vitro [9],0.0037
CN1CCN(C2=Nc3cc(Cl)ccc3Nc3ccccc32)CC1 [CLOZAPINE],fraction unbound at 5 h,in vitro [15],0.0872
same,fraction unbound at 5 h,in vitro [8],0.0521
same,logD,physchem [12]; pH 7.4,3.08
same,fraction unbound at 5 h,in vitro [10],0.0736
same,fraction unbound at 5 h,in vitro [9],0.0647
same,pKa,physchem [13],3.99
COc1cc2ncnc(Nc3ccc(F)c(Cl)c3)c2cc1NC(=O)/C=C/CN1CCCCC1 [DACOMITINIB ANHYDROUS],pKa,physchem [11],9.36
same,solubility thermodynamic,physchem [2],6.8 µM
same,fraction unbound at 5 h,in vitro [8]; PPB,0.0179
same,logD,"physchem [12]; pH 7.4, LogD7.4",4.1
same,hepatocyte CLint,in vitro [3],9.77 µL/min/1e6 cells
same,pKa,physchem [13],5.2
same,hepatocyte CLint,in vitro [4],< 3 µL/min/1e6 cells
Clc1ccc2c(c1)CCc1cccnc1C2=C1CCNCC1 [DESLORATADINE],pKa,physchem [11],10
same,fraction unbound at 5 h,in vitro [14],0.183
same,logD,physchem [12]; pH 7.4,1.48
same,hepatocyte CLint,in vitro [3],26.9 µL/min/1e6 cells
same,fraction unbound at 5 h,in vitro [9],0.145
same,pKa,physchem [13],4.57
O=c1c2ccccc2[se]n1-c1ccccc1 [EBSELEN],LogD7.4,[6],3.31
Clc1ccc(COC(Cn2ccnc2)c2ccc(Cl)cc2Cl)cc1 (stereo not given) [ECONAZOLE],LogD7.4,[6],2.54
CC(CCc1ccccc1)NCC(O)c1ccc(O)c(C(N)=O)c1 (stereo not given) [LABETALOL],fraction unbound at 5 h,in vitro [8]; PPB,0.376
same,LogD7.4,[6],1.06
CCOC(=O)C1(c2ccccc2)CCN(C)CC1 [MEPERIDINE],LogD7.4,[6],1.4
CC(C)N1CCN(Cc2cnc(-c3cc(-c4cccc5[nH]ccc45)cc4[nH]ncc34)o2)CC1 [NEMIRALISIB],pKa,physchem [11],8.26
same,fraction unbound at 5 h,in vitro [8]; PPB,0.03
same,logD,"physchem [12]; pH 7.4, LogD7.4",3.49
same,fraction unbound at 5 h,in vitro [9],0.0358
same,pKa,physchem [13],2.4
CC1(C)NC(=O)N(c2ccc([N+](=O)[O-])c(C(F)(F)F)c2)C1=O [NILUTAMIDE],solubility thermodynamic,physchem [2],234 µM
same,LogD7.4,[6],1.74
CN1Cc2c(N)cccc2C(c2ccccc2)C1 (stereo not given) [NOMIFENSINE],logD,"physchem [12]; pH 7.4, LogD7.4",2.08
same,LogD7.4,[6],2.11
NC(=O)N1c2ccccc2CC(=O)c2ccccc21 [OXCARBAZEPINE],LogD7.4,[6],1.28
CN1CCN(CCCN2c3ccccc3Sc3ccc(Cl)cc32)CC1 [PROCHLORPERAZINE],LogD7.4,[6],3.92
CC(C)(C)NC[C@H](O)COc1nsnc1N1CCOCC1 [TIMOLOL],fraction unbound at 5 h,in vitro [8]; PPB,0.597
same,hepatocyte CLint,in vitro [3],> 150 µL/min/1e6 cells
same,LogD7.4,[6],-0.35 and -0.22
same,hepatocyte CLint,in vitro [4],4.57 µL/min/1e6 cells
CN1CCN(CCCN2c3ccccc3Sc3ccc(C(F)(F)F)cc32)CC1 [TRIFLUOPERAZINE],fraction unbound at 5 h,in vitro [8]; PPB,0.0081
same,LogD7.4,[6],4.31
same,fraction unbound at 5 h,in vitro [9],0.007
CC(CN(C)C)CN1c2ccccc2CCc2ccccc21 (stereo not given) [TRIMIPRAMINE],fraction unbound at 5 h,in vitro [8]; PPB,0.069
same,LogD7.4,[6],2.95
